Legend:
KMM1 myeloma cells = experiment: KMM1 myeloma cell growth inhibition, PrestoBlue cell viability assay, 48 hours; assay type: cell-based, human
Method: Human myeloma cell line KMM1 was purchased from the Japanese Collection of Research Bioresources Cell Bank (JCBR, Japan). KMS-11 cells were a kind gift from Dr. David Hoskin's Laboratory, […], Canada. Myeloma cells were grown in RPMI-1640 media (Sigma Aldrich, USA) supplemented with 5% heat inactivated FBS (Gibco), […] L-glutamine (Gibco), 5 mM HEPES and 1% Penstrep (Sigma Aldrich, USA) in a 5% CO2 incubator at 37° C. Cell lines were tested regularly for mycoplasma and kept free of contamination. All other chemicals were obtained from Sigma Aldrich, USA. Myeloma cells were seeded in 96 well plates at a density of 10^4 cells/well in appropriate cell media. Following overnight incubation at 37° C., MM cells were treated for 48 hours with varying concentrations of CAPE and its closely related analogues and cell viability was determined by PrestoBlue assay (Invitrogen, ON) according to the manufacturer's protocol. […] Myeloma cell growth inhibition was determined by presto blue cell viability assay (FIG. 2). […] At 5 μM, GL8 inhibited 49.9±2.9%, while CAPE inhibited the growth of 7.3±1% myeloma cells only (P=0.000017); At 10 μM, GL8 inhibited 62.3±2%, while CAPE inhibited the growth of 25.6±5% (P=0.00026).

[1] = tested on: OCI-Ly3 human lymphoma cell line; experiment: Lymphoma cell growth inhibition in lenalidomide-insensitive OCI-Ly3; assay type: cell-based
cleaved caspase-3 = experiment: Immunoblot of cleaved caspase-3 in KMM1 cells; assay type: cell-based, human; conditions: KMM1, 25 μM, 48 hr
Method: Furthermore, a noticeable increase in cleaved caspase levels in KMM1 cells treated with 25 μM GL8 and MT30 was observed. In comparison with 25 μM CAPE, a 3.2 fold increase in cleaved caspase-3 by MT30 and a 2.9 fold increase by 25 μM of GL8 were observed (FIG. 5).

Cyclin D3 = experiment: Immunoblot of cyclin D3 protein levels in KMM1 cells; assay type: cell-based, human; conditions: 48 hours; for cyclin D3 protein levels in comparison with CAPE: KMM1, 25 μM; for effect on cyclin D3 levels: KMM1, 1, 5 and 25 μM
OCT2 = experiment: Immunoblot of OCT2 protein levels in KMM1 cells; assay type: cell-based, human; conditions: KMM1, 25 μM, 48 hours
Bob-1 = experiment: Immunoblot of Bob-1 protein levels in KMM1 cells; assay type: cell-based, human; conditions: KMM1, 25 μM, 48 hours
Ikaros [2] = experiment: Immunoblot of cereblon pathway protein Ikaros in KMM1 cells; assay type: cell-based, human; conditions: KMM1 (lenalidomide resistant)
Source text: (§1) Total protein extract was obtained from KMM1 and KMS-11 cells treated with CAPE and its closely related analogues and concentration of proteins determined by the Bicinchoninic acid assay (BCA) method. Protein samples were then fractionated by sodium dodecyl sulfate polyacrylamide gel electrophoresis (SDS PAGE) and transferred electrophoretically to a polyvinylidene (PVDF) membrane. Blots were then blocked with 5% nonfat dry milk in tris(hydroxymethyl)aminomethane-buffered saline-tween (TBS-T) for 1 hour and then incubated overnight with goat polyclonal anti-IRF4 antibody; rabbit polyclonal anti-OCT2 antibody, rabbit polyclonal anti-Bob1 antibody (Santa Cruz Biotechnology, Santa Cruz, CA); mouse polyclonal anti-Cyclin D3 (Cell Signaling Technology, Whitby, ON) and mouse monoclonal anti-beta tubulin antibody (Abcam, Cambridge, MA). Detection of protein in PVDF membrane was performed using the chemiluminescence kit (Bio-Rad Laboratories, Hercules, CA).

IRF4 [3] = experiment: Immunoblot of IRF4 in lenalidomide-responsive KMS-11 cells; assay type: cell-based, human; conditions: KMS-11 (lenalidomide responsive)
Source text: as §1

Ikaros [4] = experiment: Immunoblot of Ikaros in lenalidomide-responsive KMS-11 cells; assay type: cell-based, human; conditions: KMS-11, 50 μM
Source text: as §1

[5] = tested on: normal human bone marrow mononuclear cells; experiment: Cell viability of normal mononuclear cells after 48 hr, Prestoblue cell viability assay; assay type: cell-based; conditions: for Normal Bone Marrow Mononuclear Cell Viability (%) Average: 48 hr; for inhibition of cell growth of normal human bone marrow cells (in words): 1, 10, 25, 50 μM, 48 hrs
Source text: Cell Viability of Normal Mononuclear Cells after 48 hr CAPE and GL8 Treatment, Determined by Prestoblue Cell Viability Assay.

IRF4 [6] = experiment: Immunoblot of IRF4 protein expression in KMM1 cells
Source text: as §1
KMM1 cells were treated with 1, 5 and 25 μM of CAPE and its closely related analogues for 48 hours, cells were then harvested and proteins were extracted. 15 μg protein lysates were separated on a 4-20% gradient gel and then transferred to the PVDF membrane. The membrane was probed for IRF4 protein expression using affinity purified goat polyclonal antibody. Beta-actin was used as protein loading control.

[7] = tested on: MMIR human myeloma cell line; experiment: Cell growth inhibition effect of lenalidomide on MMIR myeloma cells; assay type: cell-based
[8] = tested on: MM1S human myeloma cell line; experiment: Cell growth inhibition effect of lenalidomide on MM1S myeloma cells; assay type: cell-based
[9] = tested on: KMM1 lenalidomide non-responsive myeloma cell line; experiment: Combination treatment of lenalidomide and CAPE analogues, KMM1 cell viability after 72 hr; conditions: Homo sapiens
[10] = KMM-1, 72 h, read-out: % KMM1 Cell viability after 72 hr Lenalidomide Treatment
[11] = KMM-1, read-out: % KMM1 Cell viability, single compound treatment

In the case of `O=C(/C=C/c1ccc(O)c(O)c1)OCCCc1ccccc1` [GL8], the “myeloma cell growth inhibition (in words)” value (KMM1 myeloma cells; KMM1) is reported as “significant myeloma cell growth inhibition”, the “myeloma cell growth inhibition” value (KMM1 myeloma cells; KMM1, 48 hours, 25 μM) is reported as 58.3±13% and the “myeloma cell growth inhibition” value (KMM1 myeloma cells; KMM1, 48 hours, 50 μM) is reported as 80±5%. The “lymphoma cell growth inhibition” value ([1]; OCI-Ly3, 5 μM) was 49.9±2.9%, the “lymphoma cell growth inhibition” value ([1]; OCI-Ly3, 10 μM) was 62.3±2% and the “increase in cleaved caspase-3 in comparison with 25 μM CAPE” value (cleaved caspase-3) was 2.9 fold. The “cyclin D3 protein levels in comparison with CAPE” value (Cyclin D3) was “decreased cyclin D3 protein levels dramatically”, the “effect on cyclin D3 levels” value (Cyclin D3) was “decrease cyclin D3 levels in a dose-dependent manner” and the OCT2 protein levels (OCT2) was “downregulated”. For the same molecule, the Bob-1 protein levels (Bob-1) was “downregulated”, the “levels of Ikaros in comparison with 50 μM CAPE” value (Ikaros [2]) was “significantly decreased” and the “levels of IRF4 in comparison with 50 μM CAPE” value (IRF4 [3]; 50 μM) was “significantly decreased”. For the same molecule, the “levels of Ikaros in comparison with 50 μM CAPE” value (Ikaros [4]) was “significantly decreased”, the “Normal Bone Marrow Mononuclear Cell Viability (%) Average” value ([5]; 1 μM) was 110.0% and the “Normal Bone Marrow Mononuclear Cell Viability (%) Average” value ([5]; 10 μM) was 109.2%. For the same molecule, the “Normal Bone Marrow Mononuclear Cell Viability (%) Average” value ([5]; 25 μM) was 110.3%, the “Normal Bone Marrow Mononuclear Cell Viability (%) Average” value ([5]; 50 μM) was 101.9% and the “inhibition of cell growth of normal human bone marrow cells (in words)” value [5] was “neither GL8 nor CAPE at the following concentrations inhibited”. The “levels of IRF4 in comparison with 50 μM CAPE” value (IRF4 [6]; KMM1 (lenalidomide resistant), 50 μM) was “significantly decreased” and the “decrease of IRF4 protein expression level” value (IRF4 [6]; KMM1, 25 μM, 48 hours) was 62%.
In the case of `Nc1cccc2c1CN(C1CCC(=O)NC1=O)C2=O` (stereo not shown) [Lenalidomide], the “cell growth inhibition effect (sensitivity in words)” value (shortened to “cell growth inhibition effect”) (KMM1 myeloma cells; KMM1) is reported as “insensitive”, the “cell growth inhibition effect” value ([1]; OCI-Ly3) is reported as “insensitive” and the “effect on IRF4 protein level” value (IRF4 [3]; 10 μM, 25 μM and 50 μM) is reported as “did not alter”. The “cell growth inhibition effect” value [7] was “moderately sensitive”, the “cell growth inhibition effect” value [8] was “sensitive” and the “effect on IRF4 protein level” value (IRF4 [6]; KMM1 (lenalidomide resistant), 10 μM, 25 μM and 50 μM) was “Neither the clinically relevant concentration of 10 μM lenalidomide (Greenberg et al., 2013) nor higher concentrations of lenalidomide (25 μM and 50 μM) tested had any effect”. The viability at 0.0001 µM [9, 10] was 99%, the viability at 0.0005 µM [9, 10] was 97% and the viability at 0.001 µM [9, 10] was 97%. For the same molecule, the viability at 0.005 µM [9, 10] was 96%, the viability at 0.01 µM [9, 10] was 97% and the viability at 0.1 µM [9, 10] was 85%. It also gave a viability at 1 µM [9, 10] of 80%, a viability at 10 µM [9, 10] of 80% and a viability at 100 µM [9, 10] of 78%.
In the case of `O=C(/C=C/c1ccc(O)c(O)c1)NCCc1ccccc1` [D19], the “effect on cyclin D3 levels” value (Cyclin D3) is reported as “did not have any effect”.
With `O=C(/C=C/c1ccc(O)c(O)c1)OCCC1CCCCC1` [MT30] the “myeloma cell growth inhibition (in words)” value (KMM1 myeloma cells; KMM1) was “significant myeloma cell growth inhibition”, the “increase in cleaved caspase-3 in comparison with 25 μM CAPE” value (cleaved caspase-3) was 3.2 fold and the “cyclin D3 protein levels in comparison with CAPE” value (Cyclin D3) was “decreased cyclin D3 protein levels dramatically”. The OCT2 protein levels (OCT2) was “downregulated”, the Bob-1 protein levels (Bob-1) was “downregulated” and the “IRF4 protein expression (in words)” value (IRF4 [6]; KMM1, 25 μM, 48 hours) was “significantly down regulated”.
For `O=C(O)/C=C/c1ccc(O)c(O)c1` [CA, Caffeic acid], the “effect on cyclin D3 levels” value (Cyclin D3) was “did not have any effect”.
In the case of `O=C(/C=C/c1ccc(O)c(O)c1)OCCc1ccccc1` [CAPE, Caffeic acid (3,4-dihydroxycinnamic acid) phenethyl ester], the inhibition at 1 µM (KMM1 myeloma cells; Homo sapiens, KMM-1, KMM1, 48 hours, 1 μM, 5 μM and 10 μM) is reported as less than 30%, the inhibition at 25 µM (KMM1 myeloma cells; Homo sapiens, KMM-1, KMM1, 48 hours, 25 μM) is reported as 38.7 ± 4% and the inhibition at 50 µM (KMM1 myeloma cells; Homo sapiens, KMM-1, KMM1, 48 hours, 50 μM) is reported as 59.6 ± 2%. The inhibition at 5 µM ([1]; Homo sapiens, OCI-Ly3, 5 μM) was 7.3 ± 1%, the inhibition at 10 µM ([1]; Homo sapiens, OCI-Ly3, 10 μM) was 25.6 ± 5% and the OCT2 protein levels (OCT2) was “downregulated”. For the same molecule, the Bob-1 protein levels (Bob-1) was “downregulated”, the “Normal Bone Marrow Mononuclear Cell Viability (%) Average” value ([5]; 1 μM) was 99.3% and the “Normal Bone Marrow Mononuclear Cell Viability (%) Average” value ([5]; 10 μM) was 103.4%. For the same molecule, the “Normal Bone Marrow Mononuclear Cell Viability (%) Average” value ([5]; 25 μM) was 117.7%, the “Normal Bone Marrow Mononuclear Cell Viability (%) Average” value ([5]; 50 μM) was 122.6% and the “inhibition of cell growth of normal human bone marrow cells (in words)” value [5] was “neither GL8 nor CAPE at the following concentrations inhibited”. For the same molecule, the “decrease of IRF4 protein expression level” value (IRF4 [6]; KMM1, 25 μM, 48 hours) was 26%, the viability at 5 µM [9, 11] was 51.8% and the viability at 25 µM [9, 11] was 36%.
